Columns and labels:
[1] = tested on: cyclic AMP phosphodiesterase; test: Cyclic AMP phosphodiesterase activity inhibitory action test; type: biochemical
Experimental: To 0.2 mL of 50 mmol/L Tris-HCl buffer solution (pH 7.5) containing 5 mmol/L magnesium chloride, 0.1 mL of 2.5 mg/mL bovine serum albumin solution, 0.1 mL of 0.1 mg/mL cyclic AMP phosphodiesterase solution, and 0.05 mL of the test sample solution (Sample 1, see Table 2 below for final concentration) were added, and the mixture was statically placed at 37° C. for 5 minutes. Then, 0.05 mL of 0.5 mg/mL cyclic AMP solution was added, and the mixture was reacted at 37° C. for 60 minutes. After the reaction was completed, the reaction was stopped by boiling in a boiling water bath for 3 minutes, and then centrifugal separation was applied (2260×g, 10 minutes, 4° C.). Cyclic AMP, a reaction substrate in the supernatant, was analyzed under the following high-performance liquid chromatography conditions. In addition, as a control, the same operation was performed by adding only the solvent to which no sample was added.
• Product name: Chromatocorder 12 (available from SYSTEM INSTRUMENTS) • Stationary phase: Wakosil C18-ODS 5 μm (available from FUJIFILM Wako Pure Chemical Corporation) • Column length: 250 mm • Mobile phase: 1 mmol/L TBAP in 25 mmol/L KH2PO4: CH3CN=90:10 • Mobile phase flow rate: 1.0 mL/min • Detection: 260 nm
Then, a peak area (A) of a cyclic AMP standard product, a peak area (B1) of the supernatant reaction solution of the cyclic AMP standard product and the cyclic AMP phosphodiesterase when no sample was added, and a peak area (B2) of the supernatant reaction solution of the cyclic AMP standard product and the cyclic AMP phosphodiesterase when the test sample was added were obtained. From the obtained results, a decomposition rate (C) of the cyclic AMP standard product when no sample was added and a decomposition rate (D) of the cyclic AMP standard product when the test sample was added were calculated using the following equations.
After that, the cyclic AMP phosphodiesterase activity inhibition rate (%) was calculated from the following equation based on each decomposition rate (C, D) calculated from the above equations.

[2] = tested on: Normal human hair follicle dermal papilla cells (HFDPC); test: Follicle dermal papilla cell proliferation promotive action test (MTT); type: cell-based; conditions: 100 μmol/L, 4 days
Experimental: Normal human hair follicle dermal papilla cells (HFDPC, derived from the parietal region of a person) were cultured using follicle dermal papilla cell growth medium (PCGM, available from TOYOBO CO., LTD.) containing 1% FCS and growth additives, and then the cells were collected by a trypsin treatment. The collected cells were diluted to a cell density of 1.0×10^4 cells/mL using Dulbecco's modified Eagle's medium (DMEM) containing 10% FBS, then seeded with 200 μL per well in a collagen-coated 96-well plate, and cultured for 3 days.
After that, the medium was removed, 200 μL of the test sample (Sample 1, see Table 25 below for final concentration) dissolved in serum-free DMEM was added to each well, and culturing was further performed for 4 days. […] After the culturing was completed, the follicle dermal papilla cell proliferation promotive action was measured by MTT assay. […] The absorbance of this extract was measured at 570 nm giving the maximum absorption point of blue formazan. At the same time, the absorbance at a wavelength of 650 nm was measured as turbidity, and the difference between the two was determined as the production amount of blue formazan. From the measurement results, the follicle dermal papilla cell proliferation promotion rate (%) was calculated based on the following equation. […]

[3] = tested on: Mouse macrophage cells (RAW264.7); test: Prostaglandin E2 (PGE2) production suppressive action test in mouse macrophages; type: cell-based; conditions: RAW264.7, LPS 1 μg/mL, 16 hours
Experimental: Mouse macrophage cells (RAW264.7) were cultured using Dulbecco's modified Eagle's medium (DMEM) containing 10% FBS, and then the cells were collected using a cell scraper. The collected cells were diluted with DMEM containing 10% FBS to a concentration of 2.0×10^5 cells/mL, then seeded with 100 μL per well in a 96-well plate, and cultured for 18 hours.
After the culturing was completed, the medium was replaced with a medium containing 500 μmol/L aspirin and cultured for 4 hours in order to acetylate and inactivate the already existing COX-1 and the small amount of COX-2 expressed. After that, the cells were washed three times with PBS(−) buffer solution, 100 μL of the test sample (Sample 1, see Table 29 below for final concentration) dissolved in DMEM containing DMSO at a final concentration of 0.5% and 10% FBS was added to each well, then 100 μL of lipopolysaccharide (LPS) (available from DIFCO, E. coli 0111; B4) dissolved at a final concentration of 1 μg/mL in DMEM containing 10% FBS, and the cells were cultured for 16 hours. As a control, culturing was performed in the same manner using DMEM containing DMSO at a final concentration of 0.5% and 10% FBS to which no sample was added. After the culturing was completed, the amount of prostaglandin E2 in the culture supernatant of each well was determined using PGE2 EIA Kit (available from Cayman Chemical). From the obtained results, the PGE2 production suppression rate (%) was calculated using the following equation.
Terms in the equation represent the following respective ones. • A: PGE2 amount with test sample addition and with LPS stimulation • B: PGE2 amount without sample addition and with LPS stimulation • C: PGE2 amount without sample addition and without LPS stimulation

AGEs = test: Advanced glycation end product (AGEs) decomposition promotive action test; conditions: preformed AGEs, 37° C., 20 days
Experimental: In a 96-well type I collagen-coated plate (available from AGC Inc.), 100 μL of 0.2M D(−)-ribose solution prepared with PBS(−) buffer solution was added and statically placed at 37° C. for 2 weeks to form AGEs. In addition, the plate in which only the PBS(−) buffer solution was added was statically placed as a negative control in the same manner. After 2 weeks, 100 μL of the test sample (Sample 1, see Table 23 below for final concentration) prepared with PBS (−) buffer solution was added to each of the plates and statically further placed at 37° C. for 20 days. As a positive control, only PBS(−) buffer solution was statically placed in the same manner as substitute for the test sample, and as a negative control, only PBS(−) buffer solution was continued to be statically placed in the same manner. After 20 days, the amount of AGEs was measured by the ELISA method using an anti-AGEs antibody (available from TPANS GENIC INC.), and the AGEs decomposition promotive action was evaluated. From the obtained results, the AGEs decomposition promotion rate (%) was calculated using the following equation.
Terms in the equation represent the following respective ones. • A: Absorbance at wavelength 405 nm in negative control • B: Absorbance at wavelength 405 nm in positive control • C: Absorbance at wavelength 405 nm with test sample addition

O=C(O)CCc1ccc(O)c(O)c1 [Sample 1, 3,4-Dihydroxyhydrocinnamic acid]
cAMP phosphodiesterase activity inhibition rate ([1]; 500 μmol/L): 42.0% | cAMP phosphodiesterase activity inhibition rate ([1]; 1000 μmol/L): 46.8% | cAMP phosphodiesterase activity inhibition rate ([1]; 2000 μmol/L): 55.3% | Follicle dermal papilla cell proliferation promotion rate [2]: 124.8% | PGE2 production suppression rate ([3]; 31.25 μmol/L): 17.9% | PGE2 production suppression rate ([3]; 125 μmol/L): 17.7% | PGE2 production suppression rate ([3]; 500 μmol/L): 41.3% | AGEs decomposition promotion rate (AGEs; 125 μmol/L): 37.7% | AGEs decomposition promotion rate (AGEs; 500 μmol/L): 39.9% | AGEs decomposition promotion rate (AGEs; 2000 μmol/L): 34.1%

— US20240252456A1, “ORAL COMPOSITION, SKIN COSMETIC AND HAIR COSMETIC” (MARUZEN PHARMACEUTICALS CO., LTD., priority 2021, published 2024)
